The values below come from ChEMBL document CHEMBL3600345, “Docking of competitive inhibitors to the P2X7 receptor family reveals key differences responsible for changes in response between rat and human” (Bioorg Med Chem Lett, 2015).

One may read the IC50 as the concentration needed to halve the response being measured.

Each structure is given as a SMILES string.

Test [1] addresses T1, P2X purinoceptor 7 (Rattus norvegicus, UniProt Q64663).
T1 sequence (Q64663 whole entry): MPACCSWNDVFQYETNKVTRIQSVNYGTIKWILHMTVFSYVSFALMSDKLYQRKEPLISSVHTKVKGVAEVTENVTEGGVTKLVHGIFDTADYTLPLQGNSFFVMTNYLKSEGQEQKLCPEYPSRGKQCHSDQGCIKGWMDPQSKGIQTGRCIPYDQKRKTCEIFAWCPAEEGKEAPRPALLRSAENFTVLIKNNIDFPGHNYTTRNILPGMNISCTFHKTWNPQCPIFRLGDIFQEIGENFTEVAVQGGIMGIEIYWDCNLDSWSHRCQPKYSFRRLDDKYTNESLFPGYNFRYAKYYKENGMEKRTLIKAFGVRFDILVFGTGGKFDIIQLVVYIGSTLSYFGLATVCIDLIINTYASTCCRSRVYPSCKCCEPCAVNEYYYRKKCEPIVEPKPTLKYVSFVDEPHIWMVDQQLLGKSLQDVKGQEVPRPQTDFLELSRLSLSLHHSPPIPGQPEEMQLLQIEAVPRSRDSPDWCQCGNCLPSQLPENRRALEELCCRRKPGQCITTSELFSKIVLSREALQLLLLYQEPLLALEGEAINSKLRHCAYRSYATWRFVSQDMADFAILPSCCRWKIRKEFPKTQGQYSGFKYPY
Kind of test: Inhibition of rat P2X7 receptor.

The target of a further test is T2, P2X7 purinoceptor (Canis lupus familiaris, UniProt Q64F92).
T2 sequence (Q64F92 whole entry): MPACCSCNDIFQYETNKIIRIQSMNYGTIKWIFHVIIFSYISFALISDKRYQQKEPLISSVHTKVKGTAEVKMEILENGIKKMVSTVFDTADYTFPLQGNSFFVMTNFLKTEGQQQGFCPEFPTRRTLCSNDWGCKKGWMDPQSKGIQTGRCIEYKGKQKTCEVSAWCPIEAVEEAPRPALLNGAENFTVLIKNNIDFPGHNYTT
Kind of test: Inhibition of dog P2X7 receptor.

In test [2] the target is T3, P2X purinoceptor 7 (Homo sapiens, UniProt Q99572).
T3 sequence (Q99572 whole entry): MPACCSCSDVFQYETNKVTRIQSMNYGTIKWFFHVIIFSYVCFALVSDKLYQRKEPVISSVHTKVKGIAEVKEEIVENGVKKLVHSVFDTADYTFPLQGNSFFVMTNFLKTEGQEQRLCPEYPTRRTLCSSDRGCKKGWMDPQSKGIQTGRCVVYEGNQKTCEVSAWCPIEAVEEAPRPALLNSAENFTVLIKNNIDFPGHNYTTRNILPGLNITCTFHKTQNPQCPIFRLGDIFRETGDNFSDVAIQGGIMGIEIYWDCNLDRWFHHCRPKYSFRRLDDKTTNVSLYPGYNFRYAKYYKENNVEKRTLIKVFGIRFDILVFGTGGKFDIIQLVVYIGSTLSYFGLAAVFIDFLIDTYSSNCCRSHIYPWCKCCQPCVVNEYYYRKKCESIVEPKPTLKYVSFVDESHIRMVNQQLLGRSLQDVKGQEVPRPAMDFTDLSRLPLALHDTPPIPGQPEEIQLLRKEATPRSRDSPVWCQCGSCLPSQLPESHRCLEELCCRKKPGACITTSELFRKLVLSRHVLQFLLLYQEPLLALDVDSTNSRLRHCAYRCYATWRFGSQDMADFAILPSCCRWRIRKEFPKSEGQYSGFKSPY
Kind of test: Inhibition of human P2X7 receptor.

Test [3] in a line: Inhibition of rhesus macaque P2X7 receptor. Further details: species or system Macaca mulatta.
The target in another test is T4, P2X purinoceptor (Cavia porcellus, UniProt A9QW74).
T4 sequence (A9QW74 whole entry): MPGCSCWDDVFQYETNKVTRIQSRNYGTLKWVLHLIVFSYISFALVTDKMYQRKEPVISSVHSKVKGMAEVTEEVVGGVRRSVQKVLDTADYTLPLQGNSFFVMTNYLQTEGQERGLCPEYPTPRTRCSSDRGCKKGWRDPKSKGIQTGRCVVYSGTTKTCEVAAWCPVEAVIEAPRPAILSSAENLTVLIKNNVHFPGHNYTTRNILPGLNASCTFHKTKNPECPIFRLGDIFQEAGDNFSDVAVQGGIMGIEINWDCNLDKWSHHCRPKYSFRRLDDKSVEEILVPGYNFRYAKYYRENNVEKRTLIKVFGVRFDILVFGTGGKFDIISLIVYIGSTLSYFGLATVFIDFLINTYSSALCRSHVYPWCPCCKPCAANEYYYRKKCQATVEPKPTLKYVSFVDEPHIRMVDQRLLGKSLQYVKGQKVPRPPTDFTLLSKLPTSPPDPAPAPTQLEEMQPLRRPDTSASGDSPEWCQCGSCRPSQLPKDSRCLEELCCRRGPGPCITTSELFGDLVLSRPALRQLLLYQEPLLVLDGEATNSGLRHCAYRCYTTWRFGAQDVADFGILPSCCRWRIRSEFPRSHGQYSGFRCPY
Kind of test: Inhibition of guinea pig P2X7 receptor.

Consider `CN([C@@H](Cc1ccc(OS(=O)(=O)c2cccc3cnccc23)cc1)C(=O)N1CCN(c2ccccc2)CC1)S(=O)(=O)c1cccc2cnccc12`, for which the 50% inhibitory concentration (IC50) is above 100 µM on P2X purinoceptor 7 [1]; 0.01 µM on P2X7 purinoceptor; 0.1 µM on P2X purinoceptor 7 [2]; 0.086 µM in test [3]; 0.13 µM at P2X purinoceptor.

For the compound `O=C1CSC(=O)N1C(CCc1ccncc1)COc1ccc(-c2cccc([N+](=O)[O-])c2)cc1` (stereo not given), the values for the IC50 (against P2X purinoceptor 7 [1]; against P2X purinoceptor 7 [2]; in test [3]) were above 100 µM, 0.031 µM and 0.023 µM, respectively.

With `C[S+]([O-])c1ccc(-c2nc(-c3ccncc3)c(-c3ccc(F)cc3)[nH]2)cc1` (stereo not given) [SB-203580], the IC50 on P2X purinoceptor 7 [1] was above 30 µM; against P2X purinoceptor 7 [2], 5 µM.
